Laboratory results taken from patent US10959998B2, “Pharmaceutical use and pharmaceutical composition of pyrroloquinoline quinine, its derivatives and/or its salts” (priority 2015, dated 2021).
Marks after values point to notes of the source that are not given here.

System: infiltration of endometrial stroma and glands into myometrium
Assay: Adenomyosis mouse model created with tamoxifen, pathological section
Type: in vivo, mice
Experimental: Disodium salt of PQQ was used in the present experiment (PQQ-Na2, donated by MITSUBISHI gas chemical (MGC), Japan). The salt was dissolved with water and the concentration of its mother liquid is 1 mg/mL.
In the present Example, the mouse model of adenomyosis was created with tamoxifen. This method is easy to operate, the rate of molding can reach 100%, and the difference between the model mouses caused by the operation is small. At 2˜5 days after birth (the birth day was the first day), the mice were fed with 5 ul/(g·BW) peanut oil/lecithin/condensed milk mixture (volume ratio 2:0.2:3) supplemented with 0.2 mg/ml tamoxifen (produced by shanghai Fudan Fuhua Pharmaceutical Co, Ltd.) by drip feeding. In the negative control group, the mice were fed with peanut oil/lecithin/condensed milk mixture (volume ratio 2:0.2:3), with no tamoxifen added. All the mice were exposed to light for 12 h/day, and were reared by maternal lactation during 1-21 days of age. After 22 days of birth, the mice were separated with mother mice, and the female mice were reserved for the next experiment.
After 3 months, 7 model mice were killed after anesthesia. […] The remaining model mice were divided into 5 groups with 20 mice in each group. One of the groups was chosen as model control group (fed with normal water). The drinking water for other group were supplemented with PQQ (1 mg/kg/day), NAC (10 mg/kg/day), PQQ (1 mg/kg/day) +NAC (10 mg/kg/day) (denoted by P+N (H)); PQQ (0.2 mg/kg/day) +NAC (5 mg/kg/day) (denoted by P+N (L)).
After treatment with drugs for 4 weeks, the mice were killed by anesthesia. The uterus was surgically removed and the invasion of endometria into myometrium was analyzed by the pathological section.

[1] = 4 weeks in drinking water, PQQ (disodium salt) 1 mg/kg/day, NAC 10 mg/kg/day, P+N (H) 1+10, P+N (L) 0.2+5 mg/kg/day

O=C(O)c1cc(C(=O)O)c2c(n1)C(=O)C(=O)c1cc(C(=O)O)[nH]c1-2 [PQQ, pyrroloquinoline quinone]
infiltration of endometrial glands, positive animals/total animals [1]: 9/20*# | infiltration of endometrial stroma, positive animals/total animals [1]: 10/20*# | number of animals with infiltration of endometrial stroma and glands compared with model control group (after 4 weeks treatment, PQQ as disodium salt): evidently lower than that in the model control group
